Laboratory results as given in BindingDB's records for doi:10.1016/s0960-894x(01)00011-7 (Institute, 2001).

Key:
[1] = Inhibitory activity against non-nucleoside reverse transcriptase inhibitors (NNRTI) -resistant HIV-1 strain A17 with a Y181C mutation in RT (reverse transcriptase)
[2] = as above; remark: listed apart in the source
[3] = Inhibitory activity against non-nucleoside reverse transcriptase inhibitors (NNRTI) -resistant HIV-1 strain A17 with a Y181C mutation in reverse transcriptase

| SMILES | IC50 [1] [nM] | IC50 [2] [nM] | further results |
| --- | --- | --- | --- |
| CCC(NC(=S)Nc1nccs1)c1ccccc1 (stereo not given) [1-(1-Phenyl-propyl)-3-thiazol-2-yl-thiourea] | 2100 | – | – |
| S=C(NCCC1=CCCCC1)Nc1nccs1 [1-(2-Cyclohex-1-enyl-ethyl)-3-thiazol-2-yl-thiourea] | – | 900 | – |
| S=C(NCCOc1ccccc1)Nc1nccs1 [1-(2-Phenoxy-ethyl)-3-thiazol-2-yl-thiourea] | – | 4400 | – |
| S=C(NCCc1cccs1)Nc1ccc(Br)cn1 [1-(5-Bromo-pyridin-2-yl)-3-(2-thiophen-2-yl-ethyl)-thiourea] | 48 | – | – |
| Oc1ccc(CCNC(=S)Nc2ccc(Br)cn2)cc1 [1-(5-Bromo-pyridin-2-yl)-3-[2-(4-hydroxy-phenyl)-ethyl]-thiourea] | 70 | – | – |
| S=C(NCC12CC3CC(CC(C3)C1)C2)Nc1nccs1 [1-Adamantan-1-ylmethyl-3-thiazol-2-yl-thiourea] | – | 600 | – |
| S=C(NCc1ccco1)Nc1nccs1 [1-Furan-2-ylmethyl-3-thiazol-2-yl-thiourea] | – | 2000 | – |
| Cc1ccc(CCNC(=S)Nc2nccs2)cc1 [1-Thiazol-2-yl-3-(2-p-tolyl-ethyl)-thiourea] | – | 3900 | – |
| S=C(NCCc1cccs1)Nc1nccs1 [1-Thiazol-2-yl-3-(2-thiophen-2-yl-ethyl)-thiourea] | – | – | IC50 [3]: > 100 µM |
| S=C(NCCc1c[nH]c2ccccc12)Nc1nccs1 [1-[2-(1H-Indol-3-yl)-ethyl]-3-thiazol-2-yl-thiourea] | – | 2200 | – |
